Test results published in US6420388B1, “Osanetant in the treatment of depression and depressive disorders” (Sanofi-Synthelabo, priority 1999, dated 2002).

Tested on: major depressive disorders
Assay: Effect of osanetant on major depressive disorders in patients
Assay type: in vivo, human
Conditions: patients 18 to 65 years of age with major depressive disorders; osanetant 200 mg/day for about 6 weeks
Description: The effect of osanetant on major depressive disorders has been investigated in patients of between 18 and 65 years of age. The patients were given osanetant (200 mg/day) for a period of about 6 weeks.

Which “scores on the Hamilton scale (improvement in the depressive syndrome)” value does the source give for CC(=O)N(C)C1(c2ccccc2)CCN(CCC[C@]2(c3ccc(Cl)c(Cl)c3)CCCN(C(=O)c3ccccc3)C2)CC1 [osanetant, (R)-(+)-N-[(3-(1-benzoyl-3-(3,4-dichlorophenyl)piperidin-3-yl)propyl)-4-phenylpiperidin-4-yl]-N-methyl acetamide] here?
Its value is “significant reduction”.
